# In patent publication US20230212296A1, “SYSTEMS AND METHODS FOR TREATING CANCER” (Arizona Board of Regents on Behalf of the University of …, priority 2020, published 2023):
# Key:
# PIM1 [1] = target: T1, PIM1 (Homo sapiens, UniProt P11309); type: biochemical; conditions: immunoprecipitated HA-HIF-1α, recombinant PIM1 (FIG. 4D)
# Description: In vivo: HA-HIF-1α or its mutant (T455A) were immunoprecipitated with anti-HA antibodies. Immune complexes were washed three times in lysis buffer, then washed twice in 1× kinase buffer and incubated with 0.1 μg of recombinant active PIM1 and 100 μmol/L of ATP for 30 min at 25° C. Reactions were stopped by washing twice in a cold kinase buffer and boiling in 2×SDS loading buffer. The sample was separated on a SDS-polyacrylamide gel and subjected to Western blot analysis with anti-phospho HIF-1α (T455) antibody.
# HIF-1α = test: Immunoblotting of HIF-1α and phospho-T455 in Dox-PIM1 PC3 cells; type: cell-based; conditions: Dox-PIM1 PC3, dox 24 h, AZD1208 3 μM for 6 h (FIG. 3C)
# HIF-1 = HIF-1 reporter (HRE-Luc) assay in Dox-PIM1 cells; type: cell-based; conditions: Dox 24 h, then AZD1208 for 4 h, normoxia (FIG. 3D)
# HIF-1 target genes = test: Hypoxia-inducible gene expression (RT2 profiler array, qRT-PCR) in PC3 Dox-PIM1 cells; type: cell-based; conditions: eleven genes; Dox 24 h, ± AZD1208 for 8 h, normoxia (FIG. 3F)
# Description: Hypoxia-responsive gene expression was measured and quantified using RT^2 hypoxia-signaling PCR profiler arrays using the manufacturer's software (Qiagen). All other qRT-PCR reactions were performed using qPCRBIO SyGreen Blue Mix (PCR Biosystems), according to the manufacturer's protocol. Validated primer sets (QuantiTech primer assays; Qiagen) for each of the following genes were purchased to measure gene expression: VEGF-A, angiopoietin like 4 (ANGPTL4), and hexokinase 2 (HK2). HIF1α, PIM1 and Actin primers were purchased from IDT. Actin was used to normalize.
# SW620 cells = test: MTT cell viability, parental SW620 cells; type: cell-based; conditions: parental SW620, increasing doses, 24 h (FIG. 6B)
# Description: (§1) Response to drug: Twenty thousand cells were plated onto a 96-well plate and allowed to grow for 24 h prior to addition of the drug, and MTT assays were performed after 24 h incubation with the indicated drugs. For MTT assays, media was removed from the cells by aspiration and 50 μL serum-free DMEM and 50 μL MTT solution were added to each well, and plates were incubated for 4 h at 37° C. After incubation, 150 μL of DMSO was added to each well for 15 minutes and absorbance was read at 540 nm.
# B24 and C34 cell lines = test: MTT cell viability, HIF-1α T455D mutant SW620 lines B24 and C34; type: cell-based; conditions: B24 and C34, increasing doses, 24 h (FIG. 6B)
# Description: as §1
# SW620 tumors = test: SW620 xenograft in SCID mice; type: in vivo
# Description: (§2) FIG. 6: Five million parental, B24, or C34 SW620 cells in PBS were injected subcutaneously into the rear flanks of mice. Once the tumors reached a volume of approximately 100 mm^3, the mice were randomized for daily treatment with vehicle or AZD1208 (30 mg/kg/day, p.o.) for up to 2 weeks or until tumor burden reached a maximum volume of 2 cm^3. Tumors were measured every 2-3 days via caliper. Upon sacrifice, tumors were harvested for IHC staining with PIM1, HIF-1α, and CC3, and mRNA was collected for analysis.
# (§3) For both, the following formula was used to calculate tumor volume by caliper measurements:
# (§4) V=(tumor width)^2×tumor length/2.
# (§5) These lines were validated by Sanger sequencing.
# B24 and C34 tumors = test: B24 / C34 (HIF-1α T455D) xenografts in SCID mice; type: in vivo
# Description: as §2, §3, §4, §5
# PIM1 [2] = target: T1, PIM1; type: biochemical; set-up: Recombinant full-length GST-PIM1 was incubated with recombinant GST-HIF-1α; GST; conditions: in the presence of a PIM inhibitor (AZD1208 100 nM per method) (FIG. 4A)
# Description: In vitro: Recombinant full-length GST-PIM1 was incubated with recombinant GST-HIF-1α, GST (negative control), or dephosphorylated myelin basic protein (MBP) in the presence or absence of AZD1208 (100 nM) and ^32P-labeled ATP in kinase assay buffer (20 mM MOPS [pH 7.0] containing 100 mM NaCl, 10 mmol/L MgCl2, and 2 mmol/L dithiothreitol). Reactions were incubated at 37° C. for 60 min prior to the addition of 5× Laemmli sample buffer. Samples were separated by SDS-PAGE and gels were stained with Coomassie prior to autoradiography or preparation for mass spectrometry.
# T1 sequence (P11309 whole entry): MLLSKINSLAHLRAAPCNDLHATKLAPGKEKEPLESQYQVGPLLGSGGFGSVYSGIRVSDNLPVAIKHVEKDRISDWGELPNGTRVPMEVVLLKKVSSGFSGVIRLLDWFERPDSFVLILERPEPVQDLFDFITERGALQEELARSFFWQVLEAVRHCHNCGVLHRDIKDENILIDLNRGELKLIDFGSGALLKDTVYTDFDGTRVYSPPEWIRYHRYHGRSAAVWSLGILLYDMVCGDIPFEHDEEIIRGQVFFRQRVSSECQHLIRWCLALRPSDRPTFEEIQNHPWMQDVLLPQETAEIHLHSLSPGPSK
Compound,phosphorylation of wild-type HIF-1α at Thr455 by PIM1 (PIM1 [1]),ability of PIM1 to increase HIF-1α protein levels (HIF-1α),PIM1-induced increase of HIF-1 activity (HRE-Luc normalized to Renilla-Luc) (HIF-1),transcript levels of hypoxia-inducible genes upregulated at least 3-fold by PIM1 (HIF-1 target genes),cell viability (MTT) (SW620 cells),"cell viability (MTT), sensitivity versus parental SW620 (B24 and C34 cell lines)","HIF-1α levels in tumors (IHC) (SW620 tumors; SW620 tumors, AZD1208 30 mg/kg (FIG. 6I))","apoptosis (cleaved caspase-3 staining) (SW620 tumors; SW620 tumors, AZD1208 30 mg/kg (FIG. 6J))","expression of pro-angiogenic genes VEGF-A and ANGPT4 in tumor tissue (RT-PCR) (SW620 tumors; SW620 tumors, AZD1208 30 mg/kg (FIG. 6K))","tumor volume (SW620 tumors; SW620 tumors, AZD1208 30 mg/kg/day p.o. (FIG. 6G))","tumor vasculature (H&E staining) (SW620 tumors; SW620 xenografts, AZD1208 30 mg/kg (FIG. 6H))","expression of HIF-1 target genes in tumor tissue (RT-PCR) (B24 and C34 tumors; B24 and C34 tumors, AZD1208 30 mg/kg (FIG. 6K))","HIF-1α levels in tumors (IHC) (B24 and C34 tumors; B24 or C34 tumors, AZD1208 30 mg/kg (FIG. 6I))","apoptosis (cleaved caspase-3 staining) (B24 and C34 tumors; B24 or C34 tumors, AZD1208 30 mg/kg (FIG. 6J))","tumor growth (B24 and C34 tumors; B24 or C34 xenografts, AZD1208 30 mg/kg/day p.o. (FIG. 6G))","tumor vasculature (H&E staining) (B24 and C34 tumors; C34 and B24 tumors, AZD1208 30 mg/kg (FIG. 6H))",phosphorylation of HIF-1α by PIM1 (autoradiography) (PIM1 [2]),"kinase assay on immunoprecipitated HA-HIF-1α, western blot with phospho-T455 antibody (HA-HIF-1α (wild-type))",in vitro kinase assay (32P-ATP autoradiography; mass spectrometry of phosphorylation sites) (recombinant GST-HIF-1α)
N[C@@H]1CCCN(c2c(/C=C3\SC(=O)NC3=O)cccc2-c2ccccc2)C1 [AZD1208],blocked,blocked the ability of PIM1 to increase HIF-1α protein levels,reversed,significantly reduced,significant and dose-dependent reduction in viability,less sensitive,significantly reduced,increased,reduced,significantly reduced,disrupted tumor vasculature,no effect,refractory to PIM inhibition,no significant apoptosis was observed,unable to slow the growth,regular vasculature was observed,phosphorylation was lost,–,–
recombinant full-length GST-PIM1,–,–,–,–,–,–,–,–,–,–,–,–,–,–,–,–,–,"Wild-type HIF-1α displayed robust phosphorylation at Thr455 by PIM1, which was blocked by AZD1208","Autoradiography revealed that PIM1 is able to phosphorylate HIF-1α, and phosphorylation was lost in the presence of a PIM inhibitor"
